These results are taken from patent US6495588B2, “Scytonemin and methods of using thereof” (The Regents of the University of California, priority 2000, dated 2002).

pIC50: −log10 of the molar value.

One assay concerns the target T1, rhPKCβ2 (Homo sapiens, UniProt P05771).
T1 construct: made in house; host or cells: baculovirus expression system
The assay is described as follows: PKC activity assay. The format is biochemical. As to conditions: 0.01 μM ATP; read-out: IC50 rhPKC activity. The method, then: RhPKCβ2 was expressed in a baculovirus expression system. Kinase reactions were conducted in 50 μl comprising 0.5 μg rhPKC diluted in 2 mM Tris, and 100 μM EGTA and reaction buffer comprising substrate (0.9 mM EGTA, 1.1 mM CaCl2, 0.01 mg/ml glycogen synthase peptide (H-[…]OH) (Bachem, King of Prussia, Pa.), 40 μg/ml L-α-Phosphatidyl-L-serine, 1 μg/ml 1,3-Diolen, 10 mM MgCl2, pH 7.5). To assess PKA activity, kinase reactions were conducted in 50 μl comprising 0.5 μg PKA (from bovine heart supplied by Sigma, St. Louis, Mo.) diluted in 10 mM MOPS, pH 6.5 and reaction buffer comprising substrate (50 mM MOPS, pH 6.5, 10 mM MgCl2, 0.1 mg/ml Histone-IIA (Sigma, St. Louis, Mo.), 1 μM cAMP). An ATP solution (0.01 μM ATP and 0.5 μCi of [γ^33-P] ATP) was then added to the wells in both assay systems. Inhibitors were added at the indicated concentrations with a final DMSO concentration of 10%. Reactions were allowed to proceed for 20 minutes at 37° C. and were stopped with 25 mM EDTA. The reactions were spotted onto filter paper, washed four times in a beaker comprising 75 mM phosphoric acid and rinsed with acetone. Filters were dried and put in scintillation vials with fluid and counted.

Assay [1] has as its system tissue myeloperoxidase activity. Briefly: Myeloperoxidase (MPO) enzyme assay of mouse ear biopsies. In kind it is in vivo. Conditions: topical. The source says:
To determine neutrophil influx into inflammed tissue region, the following assay may be conducted. Generally, myeloperoxidase (MPO), a neutrophil-specific marker released from primary granules, is indicative of the extravasation of pro-inflammation neutrophils from blood into the skin. Thus, to determine whether a test compound prevents, inhibits, modulates or attenuates inflammation related to an immunogenic inflammatory pathway or neutrophil influx, ear biopsies from treated and untreated mouse ears may be extracted and quantitated according to a modified method of Bradley, P.O., et al. (1982) J. Invest Dermatology 78:206-209, which is herein incorporated by reference. Specifically, ear bores from each treatment group from mouse ear edema assays from part A above were pooled and homogenized in 80 mM sodium phosphate buffer (pH 5.4) comprising 0.5% hexadecyltrimethylammonium bromide in a siliconized glass test tube for 1 minute at 0° C. using a Brinkman Polytron. The mixtures were centrifuged at 10,000×g at 4° C. for 30 minutes. 10 μl samples from each group were then assayed in a 96-well microtiter plate. The assay was initiated by adding 250 μl of o-dianisi-dine/phosphate reagent (0.28 mg of dianisidine added to 1 ml of 50 mM sodium phosphate comprising 0.0015 H2O2) to each well. After a 30 minute incubation at 37° C., the plates were read at 450 nm on a Molecular Devices microplate reader. Diluted control biopsies were utilized to develop a standard curve. Optical density values from drug-treated groups were compared to control groups to determine the % of control values of enzyme activity.

The next assay addresses T2, GST-Myt1 (Homo sapiens, UniProt Q99640).
T2 construct: The Myt1 gene was truncated after amino acid 379 and just prior to the membrane-anchoring domain; made in house; host or cells: Sf9 (baculovirus, pFASTBAC)
T2 sequence (Q99640 1-379): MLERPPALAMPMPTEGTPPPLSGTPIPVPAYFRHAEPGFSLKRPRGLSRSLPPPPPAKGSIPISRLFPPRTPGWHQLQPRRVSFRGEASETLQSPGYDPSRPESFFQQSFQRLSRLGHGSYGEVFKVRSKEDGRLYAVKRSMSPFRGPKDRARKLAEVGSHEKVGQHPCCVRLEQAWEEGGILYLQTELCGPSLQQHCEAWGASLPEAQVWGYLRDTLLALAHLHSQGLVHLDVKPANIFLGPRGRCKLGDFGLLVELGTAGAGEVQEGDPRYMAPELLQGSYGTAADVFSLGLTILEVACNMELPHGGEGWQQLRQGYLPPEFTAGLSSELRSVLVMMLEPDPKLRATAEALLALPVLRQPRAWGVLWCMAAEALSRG
The assay is described as follows: GST-Myt1 autophosphorylation DELFIA assay. In kind it is biochemical. Conditions: 1 μM ATP. The source says: To determine the effect of SCY on GST-Myt1 activity, a rh-GST-Myt1 expression vector was constructed to include gst fused to the amino terminus of a truncated human Myt1 gene via a linker comprising a thrombin cleavage site. The Myt1 gene was truncated after amino acid 379 and just prior to the membrane-anchoring domain. The construct was cloned into the baculovirus expression system, pFASTBAC (Gibco-BRL, Gaithersburg, Md.).
Spodoptera frugiperda 9 (Sf9) cells were infected with the virus and grown for three days before purifying as described in Roshak et al. (2000) for GST-PLK1 and GST-cdc25C to 75% purity as determined by SDS-PAGE analysis and Coomassie Blue staining. Dissociative enhanced lanthanide fluorescence immunoassays (DELFIA) (Wallac OY, Turku, Finland) were performed in 50 μl/well with 0.25 μg GST-Myt1, in reaction buffer (50 mM HEPES, pH 7.4, 2 mM Mn(OAc)2, 1 μM ATP, 1 mM DTT (final reaction concentrations)), and SCY (1 nM to 10 μM final reaction concentration). […]
Reactions were allowed to proceed at room temperature with shaking for 20 minutes and were stopped with the addition of EDTA to give a final concentration of 20 mM, and the protein was allowed to bind to the wells for an additional 40 minutes. […] The plate was then read on the 1420 VICTOR plate counter from Wallac, Inc.

T1 sequence (P05771 1-673 isoform P05771-2): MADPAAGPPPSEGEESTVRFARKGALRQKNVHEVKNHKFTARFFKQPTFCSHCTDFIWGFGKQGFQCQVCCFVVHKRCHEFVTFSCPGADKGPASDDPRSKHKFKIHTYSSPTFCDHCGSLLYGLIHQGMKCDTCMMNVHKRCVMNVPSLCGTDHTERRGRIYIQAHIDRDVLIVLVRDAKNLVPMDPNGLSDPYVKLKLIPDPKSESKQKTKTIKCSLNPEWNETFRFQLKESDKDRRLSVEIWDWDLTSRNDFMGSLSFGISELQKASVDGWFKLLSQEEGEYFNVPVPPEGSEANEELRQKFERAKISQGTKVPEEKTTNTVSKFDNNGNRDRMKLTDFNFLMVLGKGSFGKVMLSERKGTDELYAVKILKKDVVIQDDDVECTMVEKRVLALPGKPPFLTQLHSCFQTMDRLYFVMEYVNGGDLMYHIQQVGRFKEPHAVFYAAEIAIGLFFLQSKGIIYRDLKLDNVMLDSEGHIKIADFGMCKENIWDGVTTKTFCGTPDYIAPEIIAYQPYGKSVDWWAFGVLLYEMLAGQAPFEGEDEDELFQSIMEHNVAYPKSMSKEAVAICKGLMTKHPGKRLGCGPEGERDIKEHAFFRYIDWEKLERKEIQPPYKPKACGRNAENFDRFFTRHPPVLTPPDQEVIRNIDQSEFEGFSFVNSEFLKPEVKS

For scytonemin, the pIC50 on rhPKCβ2 is ~5.52; at GST-Myt1, ~6.00. Besides, the “inhibition of MPO activity” value in assay [1] (1 μg scytonemin) is listed as “about 19%”; in assay [1] (5 μg scytonemin), ~18%; in assay [1] (10 μg scytonemin (fourth dose listed)), ~90%; in assay [1] (10 μg scytonemin (third dose listed)), ~68%.
